Consider four molecules from publication PMC12264794, “Homoleptic complexes of titanium(IV) fused with O^N^O Schiff base derivatives: design, BSA–DNA interaction, molecular docking, DFT and cytotoxicity” (RSC Advances, 2025).

One test concerns HEK-293 cells. Description: MTT cytotoxicity assay, HEK-293. The format is cell-based, human. The conditions noted are these: 48 h of drug exposure. As for the experimental part: The in vitro cytotoxicity of the Ti(IV) complexes under investigation was investigated using MTT, a micro-titration colorimetric method. The in vitro cytotoxicity test of the Ti(IV) complexes was evaluated against the cervical cancer cell line (HeLa), human breast cancer cell line (MCF-7) and human kidney normal cell line (HEK-293).[65,66]
In the cytotoxicity assay, tetrazolium salt 3-[4,5-dimethylthiazol-2-yl]-2,5diphenyl tetrazolium bromide (MTT) was utilized to assess cell viability. […] A Bio-Rad xMARK™ multi-well plate reader was used to measure the absorbance of each well at 570 nm. Using eqn (2), the percentage viability, which represents the relative viability of the treated cells in comparison to the control cells, was calculated, and the IC50 values and standard deviation of the substances under investigation were calculated in triplicate.2 [drawing 2]
An MTT assay was used to examine the cytotoxic effectiveness of the produced Ti(IV) complexes. After 48 hours of incubation, the cytotoxicity of Ti-1-IS to Ti-6-IBr was evaluated against human cancer cell lines, such as breast carcinoma (MCF7) and cervical cancer (HeLa), as well as the non-cancerous human embryonic kidney (HEK) cell line, by using the widely used therapeutic drug, cis-platin, as a positive control by following the standard protocol.
In general terms: Tetrazolium assays rely on reduction of a dye to a coloured formazan, in cell work by metabolically active cells.

A further test deals with HeLa cells. Put plainly: ROS generation, DCFH-DA staining. The format is cell-based, human. As to conditions: IC50 doses, 48 hours. As for the experimental part:
HeLa cells of density 5 × 10^4 were seeded in six-well plates with high glucose DMEM and kept overnight until cell confluency was attained. […] The cells were treated with 10 mM 20,70-dichlorodihydrofluorescein diacetate (DCHF-DA) dye after washing twice with PBS buffer. Later, cells were incubated at 37 °C in complete darkness for 30 minutes. Subsequently, an inverted fluorescent microscope (Olympus Confocal Laser Scanning Microscope Fluoview Fv3000) was used to assess the ROS level of the cells. […] The amount of intracellular ROS was expressed as the average fluorescence intensity.[71,72]
ROS have been proposed as potential mediators of oxidative stress-induced apoptosis caused by titanium(IV) complexes, and the electrophoresis experiment mentioned above supports this theory.

For another test, the system named is CT-DNA. Description: UV-vis absorption titration with CT-DNA. The format is binding, calf. As for the experimental part: The UV-vis titration technique was employed to conduct DNA binding investigations of the newly synthesized Ti(IV)complexes. The binding interactions between Ti(IV) complexes and CT-DNA 5 mM (5 × 10^−5 M) produced in PBS buffer were assessed in a 5 mM phosphate buffer (PBS) with a pH of 7.4. The ratio of UV absorbance of CT-DNA at each position, 260 and 280 nm, was confirmed. The concentration of each nucleotide was calculated using the molar absorption coefficient (6600 m^−1) of CT-DNA at 260 nm. Additional dilutions were made in 5 mM PBS buffer solution, and stock solutions of metal complexes were prepared in DMSO. DNA binding experiments were performed with a fixed concentration of the complex (20 μM) and increasing concentrations of CT-DNA (0–80 μM) in sample solutions to detect the CT-DNA absorbance peak.[41,42]
UV-vis spectra typically show a shift in wavelength and a change in absorption spectra as a result of the interaction of the Ti(IV) complexes with DNA. […] Then, using eqn (4), the binding characteristics for the aforementioned complexes, including binding constant (Kb) and binding sites, were determined.4 [drawing 4] where εa, εf, and εb represent the apparent extinction coefficient of the complex, the extinction coefficient of the complex in its free form and the extinction coefficient of the complex when completely bound to DNA.

Structures are written as SMILES.

In general, IC50 refers to the point on the concentration scale where inhibition reaches its midpoint. `[O-]C(=NN=Cc1c([O-])ccc2ccccc12)c1ccncc1.[O-]C(=NN=Cc1c([O-])ccc2ccccc12)c1ccncc1.[Ti+4]` [Ti-2-IN] came in with an IC50 in the test on HEK-293 cells above 250 µM.

Consider `COc1cccc(C=NN=C([O-])c2ccncc2)c1[O-].COc1cccc(C=NN=C([O-])c2ccncc2)c1[O-].[Ti+4]` [Ti-3-IO], for which, in the test on HeLa cells, the “ROS production compared to the control” value was “increased fluorescence”.

As to `[O-]C(=NN=Cc1cc(F)ccc1[O-])c1ccncc1.[O-]C(=NN=Cc1cc(F)ccc1[O-])c1ccncc1.[Ti+4]` [Ti-4-IF], in the test with CT-DNA, the “Binding constant with DNA” value is 297000 M⁻¹.

Consider `[O-]C(=NN=Cc1cc(Cl)ccc1[O-])c1ccncc1.[O-]C(=NN=Cc1cc(Cl)ccc1[O-])c1ccncc1.[Ti+4]` [Ti-5-ICl], for which the concentration for half-maximal inhibition (IC50) in the test on HEK-293 cells is above 250 µM. In the test with HeLa cells, the “ROS production compared to the control” value is reported as “increased fluorescence”.
